In ChEMBL document CHEMBL1201862, “PubChem BioAssay data set” (2004):
Active and inactive are the calls of the source.

Tests used:
[1] = target: T1, Sentrin-specific protease 8 (Homo sapiens, UniProt Q96LD8); assay: inhibition of human SENP8 cleavage activity – biochemical, luminescence, SAR follow-up (AID 504501); format: functional
T1 sequence (Q96LD8 whole entry): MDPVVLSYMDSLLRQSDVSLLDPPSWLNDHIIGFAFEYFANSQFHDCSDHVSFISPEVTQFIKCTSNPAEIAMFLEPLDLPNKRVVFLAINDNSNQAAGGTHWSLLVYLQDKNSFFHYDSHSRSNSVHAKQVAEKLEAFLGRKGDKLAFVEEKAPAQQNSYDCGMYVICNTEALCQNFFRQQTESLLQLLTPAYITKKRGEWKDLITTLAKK

Caspase-3 = target: T2, Caspase-3 (Homo sapiens, UniProt P42574); assay: SAR Analysis of small molecule inhibitors of Sentrin-specific proteases (SENPs) using a Caspase-3 Selectivity assay. [Related pubchem assays (depositor defined):AID2540, AID2599, AID434973, AID489001]; format: functional
T2 sequence (P42574 whole entry): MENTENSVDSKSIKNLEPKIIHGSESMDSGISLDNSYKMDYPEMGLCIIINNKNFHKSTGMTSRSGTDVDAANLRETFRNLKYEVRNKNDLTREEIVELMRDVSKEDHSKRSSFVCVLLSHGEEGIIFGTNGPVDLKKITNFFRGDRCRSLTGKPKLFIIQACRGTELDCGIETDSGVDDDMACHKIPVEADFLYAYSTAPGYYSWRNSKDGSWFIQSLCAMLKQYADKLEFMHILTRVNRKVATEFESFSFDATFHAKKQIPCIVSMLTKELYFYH

[2] = target: T3, Sentrin-specific protease 6 (Homo sapiens, UniProt Q9GZR1); assay: SAR Analysis of small molecule inhibitors of Sentrin-specific protease 6 (SENP6) using a Luminescent assay. [Related pubchem assays (depositor defined):AID2582, AID2599]; format: functional
T3 sequence (Q9GZR1 whole entry): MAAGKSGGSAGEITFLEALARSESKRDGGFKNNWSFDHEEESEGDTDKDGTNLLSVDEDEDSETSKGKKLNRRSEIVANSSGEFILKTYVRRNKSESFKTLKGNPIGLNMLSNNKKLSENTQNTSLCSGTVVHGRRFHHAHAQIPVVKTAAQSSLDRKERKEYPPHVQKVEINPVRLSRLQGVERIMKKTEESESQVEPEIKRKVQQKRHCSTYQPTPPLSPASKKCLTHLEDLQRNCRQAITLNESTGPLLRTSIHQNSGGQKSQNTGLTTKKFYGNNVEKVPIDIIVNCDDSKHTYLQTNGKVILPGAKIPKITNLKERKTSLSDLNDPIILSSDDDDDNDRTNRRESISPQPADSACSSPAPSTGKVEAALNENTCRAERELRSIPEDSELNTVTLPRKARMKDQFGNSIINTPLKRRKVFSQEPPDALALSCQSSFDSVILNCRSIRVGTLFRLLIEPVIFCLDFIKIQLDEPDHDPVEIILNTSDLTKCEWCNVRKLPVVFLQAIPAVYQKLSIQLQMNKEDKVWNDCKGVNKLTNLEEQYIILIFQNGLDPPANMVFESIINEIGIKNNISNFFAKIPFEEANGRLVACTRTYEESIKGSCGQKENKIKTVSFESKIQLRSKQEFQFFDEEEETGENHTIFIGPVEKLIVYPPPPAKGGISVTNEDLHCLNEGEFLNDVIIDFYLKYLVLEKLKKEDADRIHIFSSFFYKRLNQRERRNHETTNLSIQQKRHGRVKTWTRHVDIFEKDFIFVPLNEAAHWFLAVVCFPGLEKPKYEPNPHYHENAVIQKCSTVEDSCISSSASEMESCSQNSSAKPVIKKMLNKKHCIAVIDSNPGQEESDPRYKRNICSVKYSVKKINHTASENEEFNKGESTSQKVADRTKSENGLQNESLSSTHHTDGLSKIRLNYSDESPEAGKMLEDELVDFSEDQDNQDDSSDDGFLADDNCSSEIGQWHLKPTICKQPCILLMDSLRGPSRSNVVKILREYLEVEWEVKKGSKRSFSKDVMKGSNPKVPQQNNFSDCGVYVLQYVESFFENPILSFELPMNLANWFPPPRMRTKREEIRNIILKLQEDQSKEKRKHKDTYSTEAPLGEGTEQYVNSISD

[3] = target: T4, Sentrin-specific protease 7 (Homo sapiens, UniProt Q9BQF6); assay: inhibition of human SENP7 cleavage activity – biochemical, luminescence, SAR follow-up (AID 504497); format: functional
T4 sequence (Q9BQF6 whole entry): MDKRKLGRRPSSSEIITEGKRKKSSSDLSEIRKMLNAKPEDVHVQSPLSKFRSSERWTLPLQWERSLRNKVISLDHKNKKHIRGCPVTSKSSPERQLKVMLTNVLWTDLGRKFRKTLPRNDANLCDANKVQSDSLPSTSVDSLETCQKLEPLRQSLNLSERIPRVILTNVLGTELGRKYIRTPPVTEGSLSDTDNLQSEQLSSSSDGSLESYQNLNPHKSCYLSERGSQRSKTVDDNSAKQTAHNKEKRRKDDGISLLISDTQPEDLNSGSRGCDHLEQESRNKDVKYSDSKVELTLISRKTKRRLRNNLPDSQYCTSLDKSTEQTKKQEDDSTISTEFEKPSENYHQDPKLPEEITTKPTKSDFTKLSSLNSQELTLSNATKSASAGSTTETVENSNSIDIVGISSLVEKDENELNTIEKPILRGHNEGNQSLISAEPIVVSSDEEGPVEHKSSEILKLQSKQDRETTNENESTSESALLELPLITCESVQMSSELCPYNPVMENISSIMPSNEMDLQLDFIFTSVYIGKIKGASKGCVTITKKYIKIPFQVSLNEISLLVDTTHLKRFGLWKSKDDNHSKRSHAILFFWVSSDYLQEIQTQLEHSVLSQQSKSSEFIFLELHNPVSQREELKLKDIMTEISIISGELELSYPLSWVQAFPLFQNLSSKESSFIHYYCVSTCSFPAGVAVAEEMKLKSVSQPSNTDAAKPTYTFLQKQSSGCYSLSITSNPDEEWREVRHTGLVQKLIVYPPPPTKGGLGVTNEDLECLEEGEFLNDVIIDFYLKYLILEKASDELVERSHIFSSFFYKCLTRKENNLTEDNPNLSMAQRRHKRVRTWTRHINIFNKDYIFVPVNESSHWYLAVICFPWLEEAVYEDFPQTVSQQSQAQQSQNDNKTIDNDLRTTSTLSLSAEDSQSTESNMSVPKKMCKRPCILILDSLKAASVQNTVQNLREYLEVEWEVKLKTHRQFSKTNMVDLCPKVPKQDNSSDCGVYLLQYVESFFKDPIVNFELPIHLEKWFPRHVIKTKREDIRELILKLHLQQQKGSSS

Leucine aminopeptidase = target: T5, Leucine aminopeptidase (Plasmodium falciparum 3D7, UniProt Q8IL11); assay: P. falciparum M17LAP inhibitors, primary screen, biochemical, fluorogenic H-Leu-NHMec substrate, 1536-well (AID 1619); format: functional
T5 sequence (Q8IL11 whole entry): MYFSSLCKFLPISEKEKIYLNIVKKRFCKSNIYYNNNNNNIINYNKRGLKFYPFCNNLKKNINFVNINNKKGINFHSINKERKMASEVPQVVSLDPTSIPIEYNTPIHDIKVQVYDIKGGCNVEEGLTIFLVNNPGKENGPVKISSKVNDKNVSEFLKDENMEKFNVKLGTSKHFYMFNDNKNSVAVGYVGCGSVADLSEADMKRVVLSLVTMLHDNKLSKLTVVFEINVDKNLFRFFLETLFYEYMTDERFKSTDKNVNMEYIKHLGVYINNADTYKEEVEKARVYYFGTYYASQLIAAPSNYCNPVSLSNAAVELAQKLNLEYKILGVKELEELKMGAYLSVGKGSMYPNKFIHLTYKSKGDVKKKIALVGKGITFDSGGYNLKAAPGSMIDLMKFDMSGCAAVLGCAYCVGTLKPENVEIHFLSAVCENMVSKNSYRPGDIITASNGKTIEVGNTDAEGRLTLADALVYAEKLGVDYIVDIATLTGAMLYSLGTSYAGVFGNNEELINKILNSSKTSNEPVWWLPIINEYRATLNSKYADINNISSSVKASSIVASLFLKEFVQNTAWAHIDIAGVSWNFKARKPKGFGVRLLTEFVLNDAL

Cytochrome P450 2C9 = Cytochrome P450 2C9 (Homo sapiens, UniProt P11712)
[4] = target: T6, Mitochondrial peptide methionine sulfoxide reductase (Bos taurus, UniProt P54149); assay: Absorbance-based biochemical high throughput dose response assay for activators of Methionine sulfoxide reductase A (MsrA).; format: functional
T6 sequence (P54149 whole entry): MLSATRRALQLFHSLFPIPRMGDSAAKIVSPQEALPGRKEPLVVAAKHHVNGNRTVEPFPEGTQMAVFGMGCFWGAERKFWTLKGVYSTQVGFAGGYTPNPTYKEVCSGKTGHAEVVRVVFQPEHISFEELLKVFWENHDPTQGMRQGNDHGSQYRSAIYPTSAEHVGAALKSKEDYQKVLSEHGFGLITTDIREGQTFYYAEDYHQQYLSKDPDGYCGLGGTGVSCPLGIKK

Cytochrome P450 2C19 = Cytochrome P450 2C19 (Homo sapiens, UniProt P33261); assay: Cytochrome panel assay with activity outcomes. Panel member name: p450-cyp2c19 Compounds with AC50 equal or less than 10 uM are considered active; format: functional; settings: read-out: AC50
Melanocortin receptor 4 = Melanocortin receptor 4 (Homo sapiens, UniProt P32245); format: functional, cell-based;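 further: Cell-based assay with luminescence read-out, confirmatory dose-response testing for agonist activity of biased ligands at MC4R; human U2OS cells with tagged receptor and beta-arrestin; potency of agonists that increase receptor coupling to beta-arrestin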
[5] = bead-based luminescence quenchers, dual-tagged ARNT – biochemical, AlphaScreen, cherry-pick, artefact control for ARNT-TACC3 interaction inhibitor project, dose response (AID 651705); format: functional;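 further: AlphaScreen bead proximity signal that flags compounds interfering with the detection technology; potency reflects signal decrease which marks the compound as an assay artifact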
[6] = Trypanosoma cruzi growth suppression in host cells – NIH3T3 host cells, beta-gal luminescence, confirmation (AID 2044); format: functional, cell-based;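 further: intracellular parasites grown in NIH/3T3 mouse fibroblasts as host cells; luminescent beta-galactosidase reporter signal from transgenic T. cruzi replicating inside host cells; inhibitors lower the luminescence signal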
[7] = inhibition of ARNT PAS-B/TACC3 complex formation – biochemical, AlphaScreen, cherry-picked samples, confirmation (AID 651703); format: functional, Homo sapiens;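 further: His-tagged ARNT PAS-B domain paired with GST-TACC3 E629A dimer coactivator fragment; potency of inhibitors that break up the complex and lower AlphaScreen signal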
Vero = assay: cells; format: functional; settings: Chlorocebus sabaeus
[8] = target: T7, DNA repair protein RAD52 homolog (Homo sapiens, UniProt P43351); format: functional, biochemical
T7 sequence (P43351 whole entry): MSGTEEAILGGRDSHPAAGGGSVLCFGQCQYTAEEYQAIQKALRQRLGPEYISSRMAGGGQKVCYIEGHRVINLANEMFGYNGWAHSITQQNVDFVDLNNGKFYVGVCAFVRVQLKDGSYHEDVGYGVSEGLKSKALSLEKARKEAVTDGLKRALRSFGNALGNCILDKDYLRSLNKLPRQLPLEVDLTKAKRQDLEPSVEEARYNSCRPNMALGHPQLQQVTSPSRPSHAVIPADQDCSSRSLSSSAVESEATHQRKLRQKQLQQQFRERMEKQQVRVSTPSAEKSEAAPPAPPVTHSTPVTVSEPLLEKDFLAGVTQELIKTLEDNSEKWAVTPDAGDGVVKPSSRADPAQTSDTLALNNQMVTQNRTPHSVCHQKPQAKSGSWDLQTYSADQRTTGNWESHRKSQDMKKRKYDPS

[9] = NIH3T3 cell viability loss – ATP luminescence, mouse fibroblasts, counter-screen, dose response (AID 2010); format: functional, cell-based;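 further: cells exposed to compound for about 90 hours before reading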
[10] = target: T8, Aryl hydrocarbon receptor (Homo sapiens, UniProt P35869); settings: Potency;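 further: confirmatory quantitative high-throughput screen measuring activation of the AhR signaling pathway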
T8 sequence (P35869 whole entry): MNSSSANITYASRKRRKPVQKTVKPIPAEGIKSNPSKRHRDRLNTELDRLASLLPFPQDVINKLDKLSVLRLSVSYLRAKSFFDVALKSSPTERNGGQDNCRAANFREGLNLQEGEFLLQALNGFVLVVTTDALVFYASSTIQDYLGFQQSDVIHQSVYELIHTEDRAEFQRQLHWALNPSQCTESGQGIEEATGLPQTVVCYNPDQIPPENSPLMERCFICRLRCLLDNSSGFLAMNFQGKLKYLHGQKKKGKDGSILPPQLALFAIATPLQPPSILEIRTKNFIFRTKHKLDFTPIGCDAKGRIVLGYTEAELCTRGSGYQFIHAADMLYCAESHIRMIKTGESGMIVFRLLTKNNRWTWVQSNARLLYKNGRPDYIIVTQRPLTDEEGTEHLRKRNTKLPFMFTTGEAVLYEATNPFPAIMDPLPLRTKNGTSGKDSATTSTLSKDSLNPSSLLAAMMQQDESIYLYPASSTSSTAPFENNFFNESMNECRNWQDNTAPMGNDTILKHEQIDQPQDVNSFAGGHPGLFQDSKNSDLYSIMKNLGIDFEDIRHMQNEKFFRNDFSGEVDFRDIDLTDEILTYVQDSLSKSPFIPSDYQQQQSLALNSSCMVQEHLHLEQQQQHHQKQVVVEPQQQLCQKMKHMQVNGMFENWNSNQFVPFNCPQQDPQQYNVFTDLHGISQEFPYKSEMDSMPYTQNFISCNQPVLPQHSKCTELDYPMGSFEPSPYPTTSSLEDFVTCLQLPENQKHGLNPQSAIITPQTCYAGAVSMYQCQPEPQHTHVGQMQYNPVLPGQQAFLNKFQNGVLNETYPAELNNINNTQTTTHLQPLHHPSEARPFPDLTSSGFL

Sequence of Melanocortin receptor 4 (P32245 whole entry): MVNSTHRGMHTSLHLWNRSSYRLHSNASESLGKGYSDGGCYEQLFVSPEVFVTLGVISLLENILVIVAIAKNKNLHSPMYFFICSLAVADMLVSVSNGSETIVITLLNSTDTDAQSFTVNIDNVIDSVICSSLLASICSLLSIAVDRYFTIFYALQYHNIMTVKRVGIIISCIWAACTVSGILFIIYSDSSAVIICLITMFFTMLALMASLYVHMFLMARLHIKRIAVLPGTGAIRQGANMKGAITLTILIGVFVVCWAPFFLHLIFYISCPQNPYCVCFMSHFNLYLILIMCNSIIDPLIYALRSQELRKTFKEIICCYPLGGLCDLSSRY
Sequence of Cytochrome P450 2C9 (P11712 whole entry): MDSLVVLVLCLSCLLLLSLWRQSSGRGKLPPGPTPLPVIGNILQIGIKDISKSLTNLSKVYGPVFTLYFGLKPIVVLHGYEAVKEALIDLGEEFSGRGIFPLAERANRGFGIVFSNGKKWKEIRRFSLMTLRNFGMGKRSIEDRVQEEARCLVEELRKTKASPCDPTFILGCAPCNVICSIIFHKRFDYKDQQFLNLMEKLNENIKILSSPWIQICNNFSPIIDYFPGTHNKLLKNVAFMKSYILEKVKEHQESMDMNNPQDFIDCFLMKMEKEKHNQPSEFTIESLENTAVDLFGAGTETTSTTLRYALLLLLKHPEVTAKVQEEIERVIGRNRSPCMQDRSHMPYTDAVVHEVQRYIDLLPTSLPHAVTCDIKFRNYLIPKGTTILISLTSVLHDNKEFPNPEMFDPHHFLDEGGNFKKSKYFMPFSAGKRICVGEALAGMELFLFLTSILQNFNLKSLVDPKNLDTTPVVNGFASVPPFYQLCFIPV
Sequence of Cytochrome P450 2C19 (P33261 whole entry): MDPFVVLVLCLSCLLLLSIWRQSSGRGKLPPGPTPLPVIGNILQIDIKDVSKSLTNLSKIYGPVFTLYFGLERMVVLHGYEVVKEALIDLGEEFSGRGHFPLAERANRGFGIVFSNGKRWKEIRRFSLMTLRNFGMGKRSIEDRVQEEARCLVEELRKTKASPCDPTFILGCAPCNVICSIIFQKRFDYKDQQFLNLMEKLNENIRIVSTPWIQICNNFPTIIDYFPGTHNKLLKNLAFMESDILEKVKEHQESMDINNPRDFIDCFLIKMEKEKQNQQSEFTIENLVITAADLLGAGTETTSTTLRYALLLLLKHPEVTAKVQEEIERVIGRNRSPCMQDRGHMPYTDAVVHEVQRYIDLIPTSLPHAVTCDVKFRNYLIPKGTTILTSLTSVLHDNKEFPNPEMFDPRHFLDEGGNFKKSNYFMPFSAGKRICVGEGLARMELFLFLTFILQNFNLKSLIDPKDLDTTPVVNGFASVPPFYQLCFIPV

COc1ccc(C(=O)Nc2ccc3ccccc3c2)cc1Br
IC50 [1]: > 99 µM (inactive) | IC50 (Caspase-3): > 99 µM (inactive) | IC50 [2]: > 99 µM (inactive) | IC50 [3]: > 99 µM (inactive)

Sc1nc2cc(Cl)ccc2s1
IC50 (Leucine aminopeptidase): 14.8 µM (active) | AC50 (Cytochrome P450 2C9): 39.8 µM (inconclusive) | EC50 [4]: > 104 µM (inactive) | AC50 (Cytochrome P450 2C19): 11.2 µM (inconclusive)

Cc1ccc(C)c2nc3sc(C(=O)N4CCOCC4)c(N)c3cc12
EC50 [4]: > 104 µM (inactive)

O=C(NC(c1ccc(Cl)cc1)c1ccccn1)C1CCN(CCOc2ccc(Cl)cc2Cl)CC1 (stereo unspecified)
EC50 (Melanocortin receptor 4): > 89.2 µM (inactive)

COc1cc2nc(Nc3ccc(C)c(C)c3)nc(N)c2cc1OC
AC50 [5]: 89.2 µM (active) | EC50 [6]: 0.559 µM (active) | AC50 [7]: 74.1 µM (active) | CC50 (Vero): 14.8 µM (active) | AC50 [8]: 5.47 µM (active) | EC50 [9]: > 30 µM (not active)

CS(=O)(=O)c1ccc(N/N=C/c2c[nH]c3ccccc23)cc1
IC50 [1]: > 99 µM (inactive) | IC50 (Caspase-3): > 99 µM (inactive) | IC50 [2]: > 99 µM (inactive) | IC50 [3]: > 99 µM (inactive)

COP(=O)(OC)SCn1c(=O)oc2cc(Cl)cnc21 [AZAMETHIPHOS]
AC50 [10]: 44.7 µM (inconclusive)
